In patent publication US20110223630A1, “METHOD FOR SCREENING FOR COMPOUNDS THAT INHIBIT NEURODEGENERATION” (priority 2008, published 2011):
Residues, ends and D or L forms follow the SMILES beside them. *: point of attachment. Cbz = O=C(OCc1ccccc1)*; CH2F = FC*

How the values were obtained:
commissural neurons = experiment: Dorsal spinal cord (commissural explant) survival assay; assay type: cell-based, rat
Experimental: To examine functional roles of DR6 in axonal degeneration and programmed cell death of commissural neurons, an RNAi-based dorsal spinal cord survival assay (Kennedy et al., Cell, 78:425-435 (1994); Wang et al., supra, 1999) was conducted (see FIG. 3). E13 rat or E11.5 mouse embryos were placed in L15 medium (Gibco) and siRNAs (IDT) together with green fluorescent protein (“GFP”)-encoding plasmids were injected into the neural tubes. The siRNAs and plasmids were then delivered to dorsal progenitor cells by electroporation. Dorsal spinal cord explants were dissected out, embedded into a 3D-collagen gel matrix, and cultured in Opti-MEM/F12 medium (Invitrogen) with recombinant netrin-1 ([…]) and 5% horse serum (Sigma) at 37° C. in a 5% CO2 environment. Within 16 hours in response to chemo-attractant netrin-1, commissural axons grow out of the explant into the collagen matrix gel (Kennedy et al., supra, 1994). Commissural axons are visualized by GFP fluorescence by observation using an inverted microscope. […]
Control non-targeting, or targeting DR6 siRNA #2, or targeting DR6 siRNA #3 (IDT) together with either wild-type or mis-match DR6 cDNA and GFP-encoding plasmids. […] Within 16 hours in response to chemo-attractant netrin-1 commissural axons grow out of the explant into the collagen matrix gel (Kennedy et al., Cell 78:425-435 (1994). Commissural axons are visualized by GFP fluorescence by observation using inverted microscope. After 48 hours in culture in the absence of trophic factor support derived from the floorplate, commissural neurons undergo programmed cell death and their axons degenerate (Wang et al., Nature, 401:765-769 (1999)) (FIG. 4B). However, the axonal degeneration program can be blocked by introduction of a targeting DR6-specific siRNA #3 (FIG. 4B). […]
A dorsal spinal cord survival assay (as described in Example 2 above) was conducted using anti-DR6 antibodies. Microscopic observation (using green fluorescence channel for GFP) was employed to visualize commissural axons. […]

[1] = patients taking stable doses of Donepezil; changes from baseline; cited from earlier work
sensory neurons = experiment: NGF deprivation assay in Campenot Chambers, local sensory axon degeneration (TUJ1 stain); assay type: cell-based, mouse
Experimental: Materials and methods used to generate the data shown in this figure are as follows. To examine whether ligand is required for DR6 function in sensory axonal degeneration, a compartmented culture analysis of sensory axon growth and degeneration was carried out as follows. A Campenot nerve cell chamber system was used to isolate neuronal processes (axons) from the cell bodies in different compartments (separate fluid environments), analogous to neuronal cell bodies in one location of the nervous system projecting their axons to a distal target in another location. The assay was carried out as originally described by Campenot (Campenot et al., J. Neurosci. 11(4): 1126-39 (1991)) with the following modifications. Briefly, 35-mm tissue culture dishes were coated with PDL/Laminin and scratched with a pin rake (Tyler Research) to generate tracks, as illustrated for example in FIGS. 1 and 4 of Campenot et al., supra. […]
To trigger local axonal degeneration, NGF-containing medium from axonal compartments was substituted with neurobasal medium with an NGF blocking antibody (anti-NGF, Genentech, Inc., 20 ug/ml). Zero hours, 6 hours, or 24 to 48 hours following NGF deprivation, sensory neurons were fixed in 4% PFA for 30 minutes at room temperature and processed for immunofluorescence staining with axonal marker TUJ-1 (Covance, 1:500 dilution) to visualize degenerating axons by fluorescence microscopy (FIG. 11B) (as above described in Example 7). […]
To examine whether ligand is required for DR6 function in axonal degeneration program triggered by NGF withdrawal, 30 μg/ml of hDR6-ECD-Fc immunoadhesin protein (described in Example 3 above) or 30 μg/ml of a control Fc (Genentech, Inc.) was included together with anti-NGF treatment in axonal compartments of Campenot Chambers. Zero to 24 hours after NGF deprivation, axons in Campenot Chambers were fixed with 4% PFA/PBS and visualized by immuno-fluorescence staining with TUJ-1 (1:500, Covance)/secondary antibody conjugated to a fluorescence group Alexa 488 (Molecular Probes, BD) (FIG. 11B). […]

[2] = test system: DR6-AP binding sites on BAX null sensory axons; experiment: In situ DR6-AP sensory axon binding assay after NGF withdrawal; assay type: cell-based, mouse; conditions: OM99-2 1 uM; BAX null sensory axons E12.5
Experimental: For the in situ DR6-AP sensory axon binding assay, either wild-type or Bax null sensory explants were cultured in Neurobasal medium/B27 (Invitrogen) as outlined in the Examples 7-8 above, with 50 ng/ml NGF (Roche). Two days post-plating, DRG explants were either left untreated or deprived from NGF as described above in Examples 7-8. Bax inhibitory peptide was added where indicated on FIG. 12B (10 uM, Bax-V5, Tocris). Twelve hours post-NGF deprivation, DRG explants were washed twice with the binding buffer (HBSS, Gibco Cat. No. 14175-095, with 0.2% BSA, 0.1% NaN3, 5 mM CaCl2, 1 mM MgCl2, 20 mM HEPES, pH=7.0). AP binding assay was then carried out by making a 1:1 mixture of DR6-AP conditioned medium and the binding buffer (or control AP conditioned medium and the binding buffer), which was applied directly to DRG explants in 8-well culture slides (Becton, Dickinson and Company) and incubated for 90 minutes at room temperature.
Following the incubation, unbound DR6-AP proteins were washed away by rinsing DRG explants five times with the binding buffer. DRG explants were then fixed with 3.7% formaldehyde diluted in PBS, for 12 minutes at room temperature. The remaining formaldehyde was removed by rinsing DRG explants 3 times with HBS buffer (20 mM HEPES pH=7.0, 150 mM NaCl). Endogenous AP activity was blocked by heat inactivation at 65° C. in HBS buffer for 30 minutes. […]

For “5′-CAAUAGGUCAGGAAGAUGGCU-3′ [DR6-specific siRNA #3]”, which “axonal degeneration of commissural neurons” value (commissural neurons; DR6 siRNA electroporated with GFP plasmid, 48 hours in culture without floorplate trophic support) is on record?
The value was “blocked”.

For `CC12CC3CC(C)(C1)CC(N)(C3)C2` [Memantine], which “outcome measures SIB, ADCS-ADL19, CIBIC-Plus, NPI, BGP vs placebo” value [1] is on record?
The value was “exhibiting a benefit over placebo”.

For `CC[C@H](C)[C@H](NC(=O)OCc1ccccc1)C(=O)N[C@@H](CCC(=O)OC)C(=O)N[C@H](C(=O)N[C@@H](CC(=O)OC)C(=O)CF)[C@@H](C)O` [Z-IETD-FMK] (Cbz-IE(OMe)TD(OMe)-CH2F), which “sensory axonal degeneration after anti-NGF” value (sensory neurons; neurons cultured 5 days, then 24 hours, SP 600125 1 uM, Z-IETD-FMK 10 uM, Z-DEVD-FMK 10 uM) is on record?
Its value is “delayed”.

Which “axonal degeneration of commissural neurons” value (commissural neurons; peptide JNK inhibitor at 1 μM) does the source give for (L)-HIV-TAT48-57-PP-JBD20 [L-JNK-I] here?
The value was “partially blocked axonal degeneration”.

With OM99-2 as the compound, how does the “sensory axonal degeneration in absence of NGF” value (sensory neurons; BACE inhibitor 1 uM, FIG. 15C) read?
The value was “blocked”.

What about the “disappearance of DR6-AP binding sites from sensory axons following NGF withdrawal” value [2] of the same compound?
The value was “can block the disappearance of DR6-AP binding sites”.

What does the source list for “hDR6-ECD-Fc: human DR6 extracellular domain sequence fused with Fc, SEQ ID NO: 4”?
commissural axon degeneration (commissural neurons; 48 hours, 30 μg/ml or 10 μg/ml hDR6-ECD-Fc): delayed; sensory axonal degeneration induced by NGF withdrawal (sensory neurons; 30 μg/ml in axonal compartment with anti-NGF, 0, 6 and 24 hours, vs control Fc): delayed sensory axonal degeneration
